Data taken from patent publication US12285392B2, “Method for modulating metabolism” (Brightseed, Inc., priority 2018, dated 2025).

Legend:
HNF4α [1] = biological target: T1, HNF4α (Homo sapiens, UniProt P41235); assay: Insulin promoter activity assay in T6PNE cells (HNF4α activity); format: cell-based; conditions: for HNF4α modulation in screening: screening in the HNF4α assay
T1 construct: endogenous in cells; host or cells: T6PNE cells
T1 sequence (P41235 1-474): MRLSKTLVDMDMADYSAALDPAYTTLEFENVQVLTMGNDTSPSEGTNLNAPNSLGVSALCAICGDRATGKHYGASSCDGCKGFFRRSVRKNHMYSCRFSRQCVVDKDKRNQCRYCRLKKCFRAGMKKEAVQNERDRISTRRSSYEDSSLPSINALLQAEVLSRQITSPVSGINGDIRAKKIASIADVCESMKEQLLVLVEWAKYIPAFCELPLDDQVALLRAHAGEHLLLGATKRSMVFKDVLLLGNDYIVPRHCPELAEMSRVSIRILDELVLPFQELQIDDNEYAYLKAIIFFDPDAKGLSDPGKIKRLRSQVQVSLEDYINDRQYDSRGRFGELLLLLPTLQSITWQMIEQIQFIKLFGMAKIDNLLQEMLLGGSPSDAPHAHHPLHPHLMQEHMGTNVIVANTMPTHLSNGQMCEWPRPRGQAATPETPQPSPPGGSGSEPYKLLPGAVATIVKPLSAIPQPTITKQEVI
Description: Insulin Promoter Activity. T6PNE cells (Kiselyuk, et al. (2012) Chem Biol. 19(7):806-818; Kiselyuk, et al. (2010) J. Biomol. Screen 15(6):663-70) are seeded at 2000 cells per well in 384-well tissue culture plates in the presence of 1 μM tamoxifen and 0.03 mM palmitate. After a 24-hour incubation, a compound or extract of the invention is added to the cells. Forty-eight hours after compound or extract addition, cells are fixed in 4% paraformaldehyde and stained with DAPI. Blue (DAPI) and green (human insulin promoter driving GFP) channels are imaged.
Inhibition of HNF4α GFP Expression. Using the insulin promoter assay described herein, activity of HNF4α was assessed in the presence of BI-6015 (0, 2.5, 5 μM), a known antagonist of HNF4α (Kiselyuk, et al. (2012) Chem. Biol. 19(7):806-818), in combination with N-trans-caffeoyltyramine (0, 5, 10, 20 μM).
Given the role of HNF4α in maintaining a heal thy metabolism in humans, test compounds were screened for activity as HNF4α agonists (either direct or indirect effects). Using a known insulin promoter-reporter assay, Kiselyuk and colleagues (2010. J. Biomol. Screen 15(6):663-70), screened a library of compounds for activity to promote insulin activation. […] The OTC promoter is known to be responsive to HNF4α in transient transfection assays (Inoue, et al. (2002) J. Biol. Chem. 277:25257-65).

HNF4α mRNA = HNF4α mRNA levels by quantitative PCR; format: cell-based; conditions: FIG. 3
Description: (§1) Expression of Insulin and HNF4α. RNA was purified using a RNEASY® chromatographic separation and isolation kits (Qiagen), and converted to cDNA using the gScript™ cDNA SuperMix (Quanta Biosciences). Q-PCR was conducted with cDNA corresponding to 2 μg of RNA using an Opticon Real-Time System (MJ Research) and QPCR SuperMix (BioPioneer). See All mRNA values were normalized to 18S rRNA values and are expressed as fold changes over vehicle-treated control.

insulin mRNA = assay: Insulin mRNA levels by quantitative PCR; format: cell-based; conditions: FIG. 2
Description: as §1

pH stability assessment = format: physicochemical; conditions: pH 2, 7.4, 8.5 and 10, 37° C., 0.5 and 72 hours
Description: pH Stability Assessment. Individual stock solutions were prepared in DMSO at concentrations of 10 mg/mL. Four different buffer solutions were prepared to achieve solutions with a pH of 2, 7.4, 8.5 and 10. For each pH assay, 5 μL of stock solution was added to 245 μL of buffered solution to a 2 mL tube, vortexed and incubated in a 37° C. water bath. At each timepoint, 50 μL aliquots were taken, neutralized and analyzed via HPLC analysis using a DAD detector at 280 nm. The fold change of the peak area at 280 nm was analyzed for the initial and final timepoint, 0.5 and 72 hours, respectively.

HepG2 cells = assay: Lipid clearance in HepG2 cells (steatosis assay, Oil Red O); format: cell-based; conditions: HepG2 liver cells, 20 μM
Description: (§2) Lipid Clearance in HepG2 and T6PNE Cells (Steatosis Assay). The steatosis assay was carried out as described (Kiselyuk, et al. (2012) Chem. Biol. 19(7):806-818) with the exception of the drug concentration, which was 20 μM for N-trans-caffeoyltyramine with 0.25 mM palmitate in HepG2 cell lines, and 10 μM of either N-trans-caffeoyltyramine, N-trans-caffeoyltyramine, or pcoumaroyltyramine, with 0.25 mM palmitate in T6PNE cell lines. Steatosis was assessed using the Oil Red 0 Method for Fats kits (Poly Scientific; Warrington, PA), per manufacturer's guidelines. Briefly, frozen tissue slides or fixed cells were incubated in neat propylene glycol for 2 minutes and Oil Red 0 solution for 15 hours for slides or 1 hour for fixed cells, differentiated in 85% propylene glycol solution for 1 minute, washed twice with distilled water and stained in Hematoxylin of 10 seconds. Slides were mounted with glycerin jelly mounting medium.

T6PNE cells = assay: Lipid clearance in T6PNE cells (steatosis assay); format: cell-based; conditions: 10 μM, 0.25 mM palmitate
Description: T6PNE cells were pretreated for 1 day with 0.06 mM, 0.12 mM or 0.25 mM palmitate at which time 15 μM N-trans-caffeoyltyramine or control (DMSO) was added. Cells were harvested on day 3, 6 and 8 and subjected to staining with Nile Red and Oil Red O. Results are expressed as fold change in Nile Red staining: +palmitate/10% FBS medium (no palmitate)
as §2

estrogenic activity = assay: Counter-screen for estrogenic activity (E47MER luciferase reporter in HeLa cells); format: cell-based, human; conditions: FIG. 5
Description: Counter-Screen for Estrogenic Activity. Estrogenic activity was monitored by co-transfection of a reporter plasmid containing a multimerized E-box 5′ of a minimal promoter fused to the Firefly luciferase gene (4RTK-luc) with wild-type E47 or E47MER (Kiselyuk, et al. (2010) J. Biomol. Screen 15(6):663-70). HeLa cells were transfected using polyethylenimine, 0.2 μg 4RTK-Luc plasmid and either 0.3 μg of human E47, E47MER or pMSCVhph vector in 50 μl of serum-free Dulbecco's modification of Eagle medium per well. Transfections included Renilla luciferase (pRL-TK) plasmid as a control for transfection efficacy. Transfection conditions were as described in the PPRE-Luc reporter assay of Kiselyuk, et al. ((2010) J. Biomol. Screen 15(6):663-70). Sixteen hours after transfection, culture media were changed and maintained for 48 hours with tamoxifen and/or compound or vehicle (DMSO). Cells were then lysed and assayed for luciferase activity using the Promega DUAL-LUCIFERASE® reporter assay kit (Promega Corp., Madison, WI), and luminescence was measured using the Veritas™ Microplate Luminometer (Turner Biosystems, Sunnyvale, CA). Data were normalized to Renilla luciferase (pRL-TK) and expressed as fold-change over vehicle alone.

[2] = Bioavailability determination in mice; format: in vivo; conditions: mouse, whole blood, 30 mg/kg; male C57BL/6 mice
Description: Bioavailability Determinations.
An 8 μL aliquot of blood was used for analysis.

HNF4α [3] = biological target: T1, HNF4α; conditions: Kiselyuk et al.; cited from earlier work
HNF4α [4] = biological target: T1, HNF4α; conditions: cited from earlier work

## Cc1ccc([N+](=O)[O-])cc1S(=O)(=O)n1c(C)nc2ccccc21 [BI-6015, reference compound]
HNF4α [1]; insulin promoter assay, BI-6015 0, 2.5, 5 μM, FIG. 4
  Effect on N-trans-caffeoyltyramine-mediated increases in insulin expression: inhibited

## O=C(/C=C\c1ccc(O)c(O)c1)NCCc1ccc(O)cc1 [N-cis-caffeoyltyramine]
HNF4α [1]
  HNF4α modulation in screening: able to act as HNF4α modulators

## O=C(/C=C/c1ccc(O)cc1)NCCc1ccc(O)c(O)c1 [N-coumaroyldopamine]
HNF4α mRNA
  HNF4α gene expression: inactive
Insulin mRNA
  Insulin gene expression: inactive

## COc1cc(/C=C/C(=O)NCCc2ccc(O)cc2)ccc1O [N-trans-feruloyltyramine]
pH stability assessment
  pH Stability: Stable
HepG2 cells
  Clearing of fats (Oil Red O staining): capable of clearing harmful fats from the liver
HepG2 cells; 0.25 mM palmitate
  Accumulation of fats: inhibited accumulation of fats
T6PNE cells
  Fat accumulation: inhibition of fat accumulation
Estrogenic activity
  Estrogenic activity: did not exhibit estrogenic activity
HNF4α mRNA
  HNF4α gene expression: upregulated
HNF4α [1]
  HNF4α modulation in screening: able to act as HNF4α modulators
Insulin mRNA
  Insulin gene expression: upregulated
[2]
  bioavailability: ~7%

## COc1cc(/C=C/C(=O)NCC(O)c2ccc(O)cc2)ccc1O (stereo not shown) [N-transferuloyloctopamine]
HNF4α mRNA
  HNF4α gene expression: inactive
Insulin mRNA
  Insulin gene expression: inactive

## COc1cc(/C=C\C(=O)NCCc2ccc(O)cc2)ccc1O [cis-feruloyltyramine, reference compound]
HNF4α mRNA
  HNF4α gene expression: inactive
Insulin mRNA
  Insulin gene expression: inactive

## CCN(CCCCc1ccccc1)CCc1ccccc1 [compound 1]
HNF4α [3]
  Insulin activation in insulin promoter-reporter screen: insulin activator
HNF4α [4]
  HNF4α agonistic activity in OTC promoter assay: possess HNF4α agonistic activity

## O=C(/C=C/c1ccc(O)cc1)NCC(O)c1ccc(O)cc1 (stereo not shown) [p-coumaroyloctopamine]
HNF4α mRNA
  HNF4α gene expression: inactive
Insulin mRNA
  Insulin gene expression: inactive

## O=C(/C=C/c1ccc(O)cc1)NCCc1ccc(O)cc1 [p-coumaroyltyramine]
pH stability assessment
  pH Stability: Acid Stable
